According to patent publication US20230134428A1, “FUSED HETEROARYL COMPOUNDS, AND METHODS THEREOF FOR TREATING DISEASES, DISORDERS, AND CONDITIONS RELATING TO ABERRANT FUNCTION OF A SODIUM CHANNEL” (Praxis Precision Medicines, Inc., priority 2016, published 2023):
Like-named read-outs stand apart in the source and are kept apart here.

Molecular target: T1, human NaV1.6 (hNaV1.6) (Homo sapiens, UniProt Q9UQD0)
T1 construct: expressed in transfected cells; host or cells: HEK-293 (G418 selection)
Experiment: Modulation of late sodium current (INaL), PatchXpress electrophysiology
Type: cell-based
Protocol: Functional characterization of exemplary compounds to modulate INaL expressed by the NaV1.6 voltage-gated sodium channel was accomplished using the PatchXpressTM high throughput electrophysiology platform (Molecular Devices, Sunnyvale, CA). HEK-293 cells expressing recombinant, human NaV1.6 (hNaV1.6)were grown in DMEM/high-glucose Dulbecco's modified, 10% FBS, 2 mM sodium pyruvate, 10 mM HEPES and 400 μg/mL G418. Cells were grown to 50% - 80% confluency prior to harvesting. Trypsinized cells were washed, allowed to recover for 1 hour and then resuspended in extracellular recording solution at a concentration of 1 × 10^6 cells/ml. The onboard liquid handling facility of the PatchXpress was used for dispensing cells and applying test compounds. Nav late currents were evoked by the application of 300 nM ATX-II. […] INaL amplitude and stability were determined by analyzing the mean current amplitude over the final 20 ms of […] pulse. […] Percent steady-state inhibition of INaL was calculated as: [([…])]*100, where INaL_compound and INaL _control represent INaL recorded in the presence or absence of compound, respectively.

[1] = HEK293, 1 µM compound, HEK-293 cells expressing hNaV1.6, late current evoked by 300 nM ATX-II, read-out: INaL v1.6 (1 µM, % Inhibition)
[2] = HEK293, read-out: INaL v1.6 (1 µM, % Inhibition)

T1 sequence (Q9UQD0 whole entry): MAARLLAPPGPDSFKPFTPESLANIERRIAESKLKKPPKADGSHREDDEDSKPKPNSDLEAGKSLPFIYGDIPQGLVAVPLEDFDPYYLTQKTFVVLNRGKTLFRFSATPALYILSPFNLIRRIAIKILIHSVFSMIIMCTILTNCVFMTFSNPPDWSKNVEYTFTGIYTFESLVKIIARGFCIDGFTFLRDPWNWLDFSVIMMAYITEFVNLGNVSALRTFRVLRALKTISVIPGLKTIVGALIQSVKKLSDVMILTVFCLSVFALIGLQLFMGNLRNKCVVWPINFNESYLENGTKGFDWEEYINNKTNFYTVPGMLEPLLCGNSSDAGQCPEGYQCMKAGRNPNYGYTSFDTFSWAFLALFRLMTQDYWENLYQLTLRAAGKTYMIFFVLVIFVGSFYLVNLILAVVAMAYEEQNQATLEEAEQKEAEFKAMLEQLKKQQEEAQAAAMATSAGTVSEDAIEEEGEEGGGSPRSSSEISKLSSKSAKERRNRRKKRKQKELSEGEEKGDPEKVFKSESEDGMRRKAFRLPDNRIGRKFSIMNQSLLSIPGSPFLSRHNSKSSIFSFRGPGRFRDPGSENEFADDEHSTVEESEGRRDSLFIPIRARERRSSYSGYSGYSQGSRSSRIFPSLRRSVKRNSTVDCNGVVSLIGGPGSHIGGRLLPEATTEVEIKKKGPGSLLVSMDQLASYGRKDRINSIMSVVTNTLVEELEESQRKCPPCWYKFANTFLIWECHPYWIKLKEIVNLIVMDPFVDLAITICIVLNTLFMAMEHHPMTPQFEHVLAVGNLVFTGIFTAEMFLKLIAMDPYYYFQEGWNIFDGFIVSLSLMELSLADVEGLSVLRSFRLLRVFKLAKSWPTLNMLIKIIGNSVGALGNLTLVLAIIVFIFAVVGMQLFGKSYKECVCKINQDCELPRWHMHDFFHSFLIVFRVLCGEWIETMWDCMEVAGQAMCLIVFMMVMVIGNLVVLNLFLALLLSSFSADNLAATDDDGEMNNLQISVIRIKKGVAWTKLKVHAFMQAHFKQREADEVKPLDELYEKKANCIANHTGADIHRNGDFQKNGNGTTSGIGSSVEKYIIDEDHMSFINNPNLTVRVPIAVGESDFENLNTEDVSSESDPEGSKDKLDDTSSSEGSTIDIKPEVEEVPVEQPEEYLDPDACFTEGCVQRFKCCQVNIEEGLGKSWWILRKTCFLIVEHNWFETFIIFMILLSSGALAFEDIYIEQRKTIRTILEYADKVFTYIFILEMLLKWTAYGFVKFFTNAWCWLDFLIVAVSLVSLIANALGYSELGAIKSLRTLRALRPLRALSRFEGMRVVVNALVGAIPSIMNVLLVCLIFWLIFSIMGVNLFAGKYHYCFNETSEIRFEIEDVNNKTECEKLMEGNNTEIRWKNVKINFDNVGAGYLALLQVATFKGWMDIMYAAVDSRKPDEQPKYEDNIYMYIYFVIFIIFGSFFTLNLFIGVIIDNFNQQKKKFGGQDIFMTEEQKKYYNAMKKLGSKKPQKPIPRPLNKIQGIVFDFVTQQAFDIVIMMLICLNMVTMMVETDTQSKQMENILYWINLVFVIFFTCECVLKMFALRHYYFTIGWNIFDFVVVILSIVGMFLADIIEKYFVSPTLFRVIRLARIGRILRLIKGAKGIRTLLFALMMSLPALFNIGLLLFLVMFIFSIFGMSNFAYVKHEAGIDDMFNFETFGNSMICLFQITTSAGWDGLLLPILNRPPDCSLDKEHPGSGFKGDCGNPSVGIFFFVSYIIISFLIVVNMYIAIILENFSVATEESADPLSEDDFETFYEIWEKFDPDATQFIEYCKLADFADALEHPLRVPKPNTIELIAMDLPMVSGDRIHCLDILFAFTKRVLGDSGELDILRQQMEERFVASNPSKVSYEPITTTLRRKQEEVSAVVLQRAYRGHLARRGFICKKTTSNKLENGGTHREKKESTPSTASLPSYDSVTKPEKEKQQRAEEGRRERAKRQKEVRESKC

`COc1cc(OC(F)(F)F)ccc1-c1ccc2cnc(C(F)(F)F)n2c1` [Compound 1] was tested, and the inhibition at 1 µM [1] was > 70%.
For `FC(F)(F)COc1ccc(-c2ccc3cnc(C(F)(F)F)n3c2)cn1` [Compound 2], the inhibition at 1 µM [1] was 30 to 70%.
`COC(C)(C)c1ccc(-c2ccc3cnc(C(F)(F)F)n3c2)cc1` [Compound 3] gave an inhibition at 1 µM [1] of 30 to 70%.
`N#CC1(c2ccc(-c3ccc4cnc(C(F)(F)F)n4c3)cc2)CC1` [Compound 4] gave an inhibition at 1 µM [1] of 30 to 70%.
Molecule `FC(F)(F)Oc1ccc(-c2cn3c(C(F)(F)F)ncc3cn2)cc1` [Compound 7] has an inhibition at 1 µM [1] of 30 to 70%.
With `FC(F)(F)Oc1ccc(-c2cnc3cnc(C(F)(F)F)n3c2)cc1` [Compound 8] the inhibition at 1 µM [1] was 30 to 70%.
`FC(F)(F)Oc1ccc(-c2ccc3cnc(C(F)(F)F)n3n2)cc1` [Compound 9] showed an inhibition at 1 µM [1] of 30 to 70%.
In the case of `FC(F)c1ncc2ncc(-c3ccc(OC(F)(F)F)cc3)cn12` [Compound 10], the inhibition at 1 µM [1] is reported as < 30%.
In the case of `N#Cc1nc(C(F)(F)F)n2cc(-c3ccc(OC(F)(F)F)cc3)cnc12` [Compound 11], the inhibition at 1 µM [1] is reported as < 30%.
With `COCc1cc(OC(F)(F)F)ccc1-c1cnc2cnc(C(F)(F)F)n2c1` [Compound 12] the inhibition at 1 µM [2] was 30 to 70%.
In the case of `N#CC1(c2ccc(-c3cnc4cnc(C(F)(F)F)n4c3)cc2)CC1` [Compound 13], the inhibition at 1 µM [1] is reported as < 30%.
For `Cc1nc(C(F)(F)F)n2cc(-c3ccc(OC(F)(F)F)cc3)cnc12` [Compound 14], the inhibition at 1 µM [1] was 30 to 70%.
In the case of `COCc1cc(OC(F)(F)F)ccc1-c1cn2c(C(F)(F)F)ncc2cn1` [Compound 15], the inhibition at 1 µM [1] is reported as > 70%.
`COCc1cc(OC(F)(F)F)ccc1-c1ccc2c(C#N)nc(C(F)(F)F)n2c1` [Compound 16] was tested, and the inhibition at 1 µM [1] was > 70%.
`COc1cc(C2(C#N)CC2)ccc1-c1cnc2cnc(C(F)(F)F)n2c1` [Compound 17] was tested, and the inhibition at 1 µM [1] was < 30%.
In the case of `FC(F)(F)c1ccc(-c2cnc3cnc(C(F)(F)F)n3c2)cc1` [Compound 18], the inhibition at 1 µM [2] is reported as < 30%.
In the case of `N#Cc1nc(C(F)(F)F)n2cc(-c3ccc(OCC(F)(F)F)nc3)ccc12` [Compound 19], the inhibition at 1 µM [2] is reported as > 70%.
For `N#Cc1nc(C(F)(F)F)n2cc(-c3ccc(C4(C#N)CC4)cc3)ccc12` [Compound 20], the inhibition at 1 µM [2] was < 30%.
Molecule `N#Cc1nc(C(F)F)n2cc(-c3ccc(OC(F)(F)F)cc3)ccc12` [Compound 21] has an inhibition at 1 µM [2] of 30 to 70%.
For `N#CC1(c2ccc(-c3cn4c(C(F)(F)F)ncc4cn3)cc2)CC1` [Compound 22], the inhibition at 1 µM [1] was 30 to 70%.
`Fc1cc(-c2cn3c(C(F)(F)F)ncc3cn2)cnc1OCC(F)(F)F` [Compound 23, 6-[5-fluoro-6-(2,2,2-trifluoroethoxy)-3-pyridyl]-3-(trifluoromethyl)imidazo[1,5-a]pyrazine] gave an inhibition at 1 µM [2] of 30 to 70%.
In the case of `FC1(F)CC(c2ncc3ncc(-c4ccc(OC(F)(F)F)cc4)cn23)C1` [Compound 24], the inhibition at 1 µM [2] is reported as < 30%.
`N#Cc1nc(C(F)(F)F)n2nc(-c3ccc(OC(F)(F)F)cc3)ccc12` [Compound 25] was tested, and the inhibition at 1 µM [1] was < 30%.
Work on `FC(F)(F)Oc1ccc(-c2ccc3cnc(C4CC4(F)F)n3c2)cc1` (stereo not shown) [Compound 26] yielded an inhibition at 1 µM [1] of 30 to 70%.
In the case of `N#Cc1nc(C(F)(F)F)n2cc(-c3ccc(OC(F)(F)F)cc3)ncc12` [Compound 27], the inhibition at 1 µM [1] is reported as > 70%.
`COCc1cc(OC(F)(F)F)ccc1-c1cn2c(C(F)(F)F)nc(C#N)c2cn1` [Compound 28] was tested, and the inhibition at 1 µM [1] was > 70%.
For `N#Cc1nc(C(F)(F)F)n2cc(-c3ccc(C(F)(F)F)cc3)ncc12` [Compound 29], the inhibition at 1 µM [1] was > 70%.
With `N#Cc1nc(C2CC2(F)F)n2cc(-c3ccc(OC(F)(F)F)cc3)ccc12` (stereo not shown) [Compound 30] the inhibition at 1 µM [1] was > 70%.
`N#Cc1nc(C(F)(F)F)n2cc(-c3cnc(OCC(F)(F)F)c(F)c3)ncc12` [Compound 31, 6-[5-fluoro-6-(2,2,2-trifluoroethoxy)-3-pyridyl]-3-(trifluoromethyl)imidazo[1,5-a]pyrazine-1-carbonitrile] showed an inhibition at 1 µM [1] of 30 to 70%.
Molecule `Fc1cc(-c2cnc3cnc(C(F)(F)F)n3c2)cnc1OCC(F)(F)F` [Compound 32, 3-[5-fluoro-6-(2,2,2-trifluoroethoxy)-3-pyridyl]-6-(trifluoromethyl)imidazo[1,5-a]pyrimidine] has an inhibition at 1 µM [1] of 30 to 70%.
`N#Cc1nc(C(F)(F)F)n2cc(-c3cnc(OCC(F)(F)F)c(F)c3)ccc12` [Compound 33, 6-[5-fluoro-6-(2,2,2-trifluoroethoxy)-3-pyridyl]-3-(trifluoromethyl)imidazo[1,5-a]pyridine-1-carbonitrile] was tested, and the inhibition at 1 µM [1] was > 70%.
